Structures are written as SMILES.

One assay has as its system homologous passive cutaneous anaphylaxis (PCA) reaction. Nature of the assay: Effect on homologous passive cutaneous anaphylaxis (PCA) reaction in rats. The class given is in vivo, rat (male wistar). The settings on record: Rattus norvegicus, positive control, 200 mg/kg oral, 1 hour before induction. How it is done:
Effect on homologous passive cutaneous anaphylaxis (PCA) reaction in rats
This experimental animal model is caused by immediate type allergic reaction, namely, antigen-antibody reaction. In the following, the method of this pharmacological test will be explained.
Method: Male wistar rats (9 weeks old) were intradermally administered 0.05 ml of anti-serum against dinitrophenylated ascaris (DNP-As) into two sites on the shaved dorsal skin. 48 hours later, quinolinone derivatives (test compounds) suspended in 0.5% methylcellulose (MC) were given orally at a dose of 100 mg/kg to the animals. 1 hour after administration of Test compounds, the animals were induced anaphylaxis by injection of saline (1 ml) dissolving 1 mg of trinitrophenylated ascaris (TNP-As) and 5 mg of Evans Blue into the tail vein of the animals. 30 minutes after induction of anaphylaxis, animals were anesthetized by ether and killed by bleeding, and were flayed dorsal skin. The leakage of dye was assessed by measuring the diameter (mean of shortest and longest diameter) of the blue spot on the inside surface of dorsal skin. As vehicle control group, only 0.5% MC solution was administered orally, and as positive control group, Tranilast suspended in 0.5% MC were administered orally at a dose of 200 mg/kg to the animals with the same method as the test compounds groups. Each experimental group consisted of 5 rats. In the conditions of this experinent, it was considered that the compound, which inhibited PCA reaction by over forty (40) percent against that in vehicle control group, was evidently effective for immediate type allergy.
Inhibition (%)=(A-B)/A×100 (Equation 1)
A: leakage of dye in vehicle control group
B: leakage of dye in test compound group or positive control group
As a reminder, the inhibition in vivo is the change of the read-out against control, counted positive when it falls. The low end stands for little suppression, the high end for strong suppression. `COc1ccc(/C=C/C(=O)Nc2ccccc2C(=O)O)cc1OC` [Tranilast, reference compound] displayed an inhibition in vivo at 200 mg/kg of 52%.

Staying with this assay, now noted: Rattus norvegicus, test compounds, 100 mg/kg oral, 1 hour before induction.
In turn, `CCCCCCCCOc1c(O)c2cccc(NC)c2n(C)c1=O` [Compound 86, 8-methylamino-3-octyloxy-4-hydroxy-1-methyl-2(1H)-quinolinone] displayed an inhibition in vivo at 100 mg/kg of 53%.
On the same count and under the same terms, to `CCCCOc1c(O)c2cccc(C(=O)Oc3ccccc3)c2n(C)c1=O` [Compound 83, 8-phenoxycarbonyl-3-butoxy-4-hydroxy-1-methyl-2(1H)-quinolinone] belongs 42%; to `CCCCCCCCOc1c(O)c2cc(NC(=O)/C=C/c3cc(OC)c(O)c(OC)c3)ccc2n(C)c1=O` [Compound 78, 6-[(3,5-dimethoxy-4-hydroxycinnamoyl)amino]-3-octyloxy-4-hydroxy-1-methyl-2(1H)-quinolinone], 50%; to `CCCCCCOc1c(O)c2cccc(OCCCCCC)c2n(C)c1=O` [Compound 85, 3,8-dihexyloxy-4-hydroxy-1-methyl-2(1H)-quinolinone], 50%.
Consider `CCCCCCCCn1c(=O)c(Oc2ccccc2)c(O)c2cc(-c3ccccc3)ccc21` [Compound 34, 6-phenyl-3-phenoxy-4-hydroxy-1-octyl-2(1H)-quinolinone], for which at 100 mg/kg the inhibition in vivo was 37%.
The same measure, in the same setting: in the case of `CCCCCCCCOc1c(O)c2ccc(NC(C)=O)cc2n(C)c1=O` [Compound 76, 7-acetylamino-3-octyloxy-4-hydroxy-1-methyl-2(1H)-quinolinone] it was 51%; in that of `COc1c(O)c2cc(NC/C=C(\C)CCC=C(C)C)ccc2n(C)c1=O` [Compound 52, 6-geranylamino-3-methoxy-4-hydroxy-1-methyl-2(1H)-quinolinone], 49%.
On to `CCOc1c(O)c2c(N)cccc2n(C)c1=O` [Compound 23, 5-amino-3-ethoxy-4-hydroxy-1-methyl-2(1H)-quinolinone], for which the inhibition in vivo at 100 mg/kg came to 40%.
In the case of `COc1c(O)c2c(O)cc(O)cc2n(C)c1=O` [Compound 36, 5,7-dihydroxy-3-methoxy-4-hydroxy-1-methyl-2(1H)-quinolinone], testing at 100 mg/kg gave an inhibition in vivo of 45%.
Turning to `CCCCOc1c(O)c2c(C(=O)OCC)cccc2n(C)c1=O` [Compound 38, 5-ethoxycarbonyl-3-butoxy-4-hydroxy-1-methyl-2(1H)-quinolinone], the inhibition in vivo at 100 mg/kg was found to be 45%.
On the same count and under the same terms, to `CCCCCCCCCCNc1ccc2c(c1)c(O)c(OC)c(=O)n2C` [Compound 49, 6-decylamino-3-methoxy-4-hydroxy-1-methyl-2(1H)-quinolinone] belongs 50%; to `CCCCCCCCCCOC(=O)c1cccc2c1c(O)c(OCCCC)c(=O)n2C` [Compound 68, 5-decyloxycarbonyl-3-butoxy-4-hydroxy-1-methyl-2(1H)-quinolinone], 49%; to `CCCCCCCCOc1cccc2c1c(O)c(OC)c(=O)n2C` [Compound 84, 5-octyloxy-3-methoxy-4-hydroxy-1-methyl-2(1H)-quinolinone], 49%.
For the compound `CCCCOc1c(O)c2cc(C(=O)OCC)ccc2n(C)c1=O` [Compound 80, 6-ethoxycarbonyl-3-butoxy-4-hydroxy-1-methyl-2(1H)-quinolinone], the inhibition in vivo at 100 mg/kg amounted to 41%.
Same read-out and setting: to `CCCCNc1cccc2c(O)c(OC/C=C(\C)CCC=C(C)C)c(=O)n(C)c12` [Compound 53, 8-butylamino-3-geranyloxy-4-hydroxy-1-methyl-2(1H)-quinolinone] belongs 45%.
Still for that read-out and setting: to `COc1c(O)c2cc(C/C=C(\C)CCC=C(C)C)ccc2n(C)c1=O` [Compound 61, 6-geranyl-3-methoxy-4-hydroxy-1-methyl-2(1H)-quinolinone] belongs 42%.
`Cn1c(=O)c(Oc2ccccc2)c(O)c2cc(N)ccc21` [Compound 24, 6-amino-3-phenoxy-4-hydroxy-1-methyl-2(1H)-quinolinone] came in with an inhibition in vivo at 100 mg/kg of 42%.
Turning to `CCOc1c(O)c2c(N)cccc2n(C/C=C(\C)CCC=C(C)C)c1=O` [Compound 44, 5-amino-3-ethoxy-4-hydroxy-1-geranyl-2(1H)-quinolinone], the inhibition in vivo at 100 mg/kg was 42%.
As for `CCCCCCCCOc1c(O)c2cccc(NC(=O)/C=C/c3cc(OC)c(O)c(OC)c3)c2n(C)c1=O` [Compound 79, 8-[(3,5-dimethoxy-4-hydroxycinnamoyl)amino]-3-octyloxy-4-hydroxy-1-methyl-2(1H)-quinolinone], 100 mg/kg produced 49% inhibition in vivo.
`CCCCCCCCOc1c(O)c2c(NC(=O)/C=C/c3cc(OC)c(O)c(OC)c3)cccc2n(C)c1=O` [Compound 77, 5-[(3,5-dimethoxy-4-hydroxycinnamoyl)amino]-3-octyloxy-4-hydroxy-1-methyl-2(1H)-quinolinone]: the inhibition in vivo at 100 mg/kg worked out at 55%.
The compound `CC(=O)Nc1ccc2c(c1)c(O)c(Oc1ccccc1)c(=O)n2C` [Compound 26, 6-acetylamino-3-phenoxy-4-hydroxy-1-methyl-2(1H)-quinolinone] returned an inhibition in vivo at 100 mg/kg of 39%.
`CC(C)=CCC/C(C)=C/COc1c(O)c2cccc(N)c2n(C)c1=O` [Compound 45, 8-amino-3-geranyloxy-4-hydroxy-1-methyl-2(1H)-quinolinone] yielded an inhibition in vivo at 100 mg/kg of 46%.
Same read-out and setting: to `CCCCCCCCCCOc1ccc2c(c1)c(O)c(OC)c(=O)n2C` [Compound 54, 6-decyloxy-3-methoxy-4-hydroxy-1-methyl-2(1H)-quinolinone] belongs 50%.
